Results taken from patent US6828450B2, “Triptycene analogs” (Kansas State University Research Foundation, priority 2000, dated 2004).
pIC50: −log10 of the molar value. Where “and” joins values, the source holds several entries; their conditions need not be identical. Identical values can stand only once. Entries after “also recorded” stand apart in the source; their conditions may differ. Each block holds one compound with its values, some of them ahead of it.

How the values were obtained:
L1210 cells [1] = assay: Nucleoside transport (30-sec cellular uptake) in L1210 cells; type: cell-based, murine
Protocol: FIG. 10. Concentration-dependent inhibition of nucleoside transport by the TT analog TT2 in L1210 cells in vitro. […] After washing thrice with PBS, intact cell pellets were harvested by centrifugation, incubated for 30 min in 1 ml of HLB containing 0.2% Triton X-100, and these lysates were mixed with scintillation cocktail and counted to estimate the cellular uptake of ^3H-thymidine. Results are expressed as % of ^3H-thymidine transported into vehicle-treated control cells over 30 sec (15,031±872 cpm; 100±6%; striped area).
FIG. 11. Comparison of the inhibitory effects of novel TT analogs on DNA synthesis (open) and nucleoside transport (striped) in L1210 cells in vitro. The cellular uptake of ^3H-thymidine (striped) and the rate of ^3H-thymidine incorporation into DNA (open) were determined in cells (1.38×10^6/0.5 ml of RPMI 1640 medium) respectively preincubated at 37° C. for 15 or 90 min in the presence or absence (control) of 7 μM concentrations of the indicated compounds. For the cellular transport of nucleosides, preincubated cells were then exposed to 1 μCi of ^3H-thymidine for 30 sec at 37° C. Results are expressed as % of ^3H-thymidine transported into vehicle-treated control cells over 30 sec (15,539±1,767 cpm; 100±11%; striped control). For DNA synthesis, preincubated cells were then pulse-labeled with 1 μCi of ^3H-thymidine for an additional 30 min at 37° C. Results are expressed as % of ^3H-thymidine incorporation into DNA in vehicle-treated control cells over 30 min (28,505±2,594 cpm; 100±9%; open control). The blank value (1,075±171 cpm) for cells incubated and pulse-labeled at 2° C. with 1 μCi of ^3H-thymidine has been substracted from the results. Bars: means±SD (n=3). ^aNot different from TT3, TT7, TT9 and TT11; ^bP<0.01, smaller than TT1 but not different from TT13; ^cnot different from control; ^dP<0.025, greater than TT1; ^eP<0.05, smaller than control.
FIG. 12. Irreversibility of the inhibitory effects of the novel TT analog TT2 on DNA synthesis (open) and nucleoside transport (striped) in L1210 cells in vitro. […] The cellular uptake of ^3H-thymidine (striped) and the rate of ^3H-thymidine incorporation into DNA (open) were determined in cells (1.64×10^6/0.5 ml of RPMI 1640 medium) respectively preincubated at 37° C. for 15 or 60 min in the presence or absence (control) of 10 and 25 μM TT2 or 25 μM H10. The protocol of the experiments and the determination of the results were identical to those of FIGS. 9 and 10, except that, after preincubation, either the drugs were maintained in the culture medium (+) or the cells were spun, washed, and resuspended in fresh medium in order to remove the drugs (−). After preincubation, vehicle-treated controls were similarly spun and washed. For the cellular transport of nucleosides, preincubated cells were then exposed, in the presence (+) or absence (−) of TT2 or H10, to 1 μCi of ^3H-thymidine for 30 sec at 37° C. Results are expressed as % of ^3H-thymidine transported into vehicle-treated control cells over 30 sec (11,054±754 cpm; 100±7%; striped control+; 14,486±1,260 cpm; 100±9%; striped control−). For DNA synthesis, preincubated cells were then pulse-labeled with 1 μCi of ^3H-thymidine for an additional 30 min at 37° C. in the presence (+) or absence (−) of TT2 or H10. Results are expressed as % of ^3H-thymidine incorporation into DNA in vehicle-treated control cells over 30 min (34,052±1,566 cpm; 100±5%; open control+; 28,811±2,506 cpm; 100±9%; open control−). The blank value (1,328±86 cpm) for cells incubated and pulse-labeled at 2° C. with 1 μCi of ^3H-thymidine has been substracted from the results. Bars: means±SD (n=3).
L1210 cells (about 1.5×10^6 cells/0.5 ml) were preincubated for 15 min at 37° C. in the presence or absence of TTs and then exposed to 1 μCi of ^3H-thymidine for only 30 sec to assess the cellular uptake of nucleoside over such very short period of time. […]

L1210 cells [2] = assay: DNA synthesis (3H-thymidine incorporation) in L1210 cells; type: cell-based, murine; details: for concentration at which the drug becomes effective against DNA synthesis: 2-h treatment
Protocol: FIG. 9. […] Cells (1.14×10^6/0.5 ml of RPMI 1640 medium) were incubated at 37° C. for 90 min in the presence or absence (control) of the indicated concentrations of drugs, which are plotted on a logarithmic scale, and then pulse-labeled for an additional 30 min to determine the rate of ^3H-thymidine incorporation into DNA.
FIG. 11. […] The cellular uptake of ^3H-thymidine (striped) and the rate of ^3H-thymidine incorporation into DNA (open) were determined in cells (1.38×10^6/0.5 ml of RPMI 1640 medium) respectively preincubated at 37° C. for 15 or 90 min in the presence or absence (control) of 7 μM concentrations of the indicated compounds. For the cellular transport of nucleosides, preincubated cells were then exposed to 1 μCi of ^3H-thymidine for 30 sec at 37° C. […] For DNA synthesis, preincubated cells were then pulse-labeled with 1 μCi of ^3H-thymidine for an additional 30 min at 37° C.
FIG. 12. […] The cellular uptake of ^3H-thymidine (striped) and the rate of ^3H-thymidine incorporation into DNA (open) were determined in cells (1.64×10^6/0.5 ml of RPMI 1640 medium) respectively preincubated at 37° C. for 15 or 60 min in the presence or absence (control) of 10 and 25 μM TT2 or 25 μM H10. […] After preincubation, vehicle-treated controls were similarly spun and washed. For the cellular transport of nucleosides, preincubated cells were then exposed, in the presence (+) or absence (−) of TT2 or H10, to 1 μCi of ^3H-thymidine for 30 sec at 37° C. […] For DNA synthesis, preincubated cells were then pulse-labeled with 1 μCi of ^3H-thymidine for an additional 30 min at 37° C. in the presence (+) or absence (−) of TT2 or H10. […] Bars: means±SD (n=3).
For nucleic acid and protein syntheses, L1210 cells were resuspended in fresh FCS-containing RPMI 1640 medium at a density of about 1.1-1.6×10^6 cells/0.5 ml. To estimate the rate of DNA synthesis, HL-60-S, HL-60-RV and HL-60-R8 cells were resuspended in fresh FCS-containing RPMI 1640 medium at a density of 5×10^5 cells/0.5 ml.

SMILES: COc1cccc2c1C(=O)c1c(O)c3c(c(O)c1C2=O)C[C@@](O)(C(C)=O)C[C@@H]3O[C@H]1C[C@H](N)[C@H](O)[C@H](C)O1 [DAU, daunomycin, reference compound]
- effect of DAU on cellular transport of nucleosides (L1210 cells [1]; 15-min treatment, 30-sec uptake, 10 μM DAU): inactive; also recorded: totally unable
- concentration at which the drug becomes effective against DNA synthesis (L1210 cells [2]): 0.256 µM
- times DAU prevents DNA synthesis more effectively than TT2 (L1210 cells [2]; L1210, from IC50 values): about 6 times

- pIC50 (L1210 cells [1]; 15-min pretreatment, 30-sec uptake, read-out: IC50, inhibition of cellular transport of nucleosides): 5.22
- pIC50 (L1210 cells [2]; 90 min drug + 30 min pulse-labeling (2 h), read-out: IC50, inhibition of DNA synthesis in L1210 cells): 5.22 and ~5.22
SMILES: COC1=CC(=O)C2=C(C1=O)C1C3=C(C(=O)C=CC3=O)C2c2ccccc21 (stereo not drawn) [TT2, 2-Methoxy-9,10-dihydro-9,10-[1′,2′]benzenoanthracene-1,4,5,8-tetraone]
- % inhibition of nucleoside transport (L1210 cells [1]; 10 μM TT2, 15-min preincubation): 67%
- effect on nucleoside transport (L1210 cells [1]; 25 μM TT2): totally inhibited
- % inhibition of nucleoside transport (L1210 cells [1]; 25 μM TT2, 15-min preincubation): 93%
- reversibility of the inhibition of nucleoside transport upon drug removal (L1210 cells [1]; 10 and 25 μM TT2 or 25 μM H10, 15-min preincubation): irreversible
- % inhibition of DNA synthesis (L1210 cells [2]; 10 μM TT2, 60-min preincubation): 69%
- effect on DNA synthesis (L1210 cells [2]; 25 μM TT2, 2-h treatment): totally inhibited
- % inhibition of DNA synthesis (L1210 cells [2]; 25 μM TT2, 60-min preincubation): 97%
- concentration at which the drug becomes effective against DNA synthesis (L1210 cells [2]): greater than 1.6 μM
- reversibility of the inhibition of DNA synthesis upon drug removal (L1210 cells [2]; 10 and 25 μM TT2 or 25 μM H10, 60-min preincubation): irreversible
- times TT2 inhibits DNA, RNA and protein syntheses less effectively than DAU (L1210 cells [2]; L1210, after 2-3 h, IC50 values compared): 3-6 times

SMILES: COC(=O)C1=C(C(=O)OC)C[C@H]2C(=O)C3=C(C(=O)[C@H]2C1)C1C2=C(C(=O)[C@H]4CC(C(=O)OC)=C(C(=O)OC)C[C@H]4C2=O)C3c2ccccc21 [TT4, (4aS*,7aR*,11aS*,14aR*)-Tetramethyl 1,4,4a,5,6,7,7a,8,11,11a,12,13,14,14a-tetradecahydro-5,7,12,14-tetraoxo-6,13-[1′,2′]benzenopentacene-2,3,9,10-tetracarboxylate]
- effect on nucleoside transport (L1210 cells [1]; 7 μM, 15 min): alter neither
- effect on DNA synthesis (L1210 cells [2]; 7 μM, 2 h): alter neither

SMILES: COC(=O)C1=C(C(=O)OC)C[C@H]2[C@@H](C1)[C@@H](O)C1=C(C3C4=C(C1c1ccccc13)[C@@H](O)[C@H]1CC(C(=O)OC)=C(C(=O)OC)C[C@H]1[C@H]4O)[C@H]2O [TT12, (4aS*,5S*,7R*,12S*,14R*,7aR*,11aS*,14aR*)-Tetramethyl 1,4,4a,5,6,7,7a,8,11,11a,12,13,14,14a-tetradecahydro-5,7,12,14-tetrahydroxy-6,13-[1′,2′]benzenopentacene-2,3,9,10-tetracarboxylate]
- effect on nucleoside transport (L1210 cells [1]; 7 μM, 15 min): alter neither
- effect on DNA synthesis (L1210 cells [2]; 7 μM, 2 h): alter neither

SMILES: COC1=C(Br)C(=O)C2=C(C1=O)C1C3=C(C(=O)C=C(N(C)C)C3=O)C2c2ccccc21 (stereo not drawn) [TT16, 2-Bromo-3-methoxy-6-(dimethylamino)-9,10-dihydro-9,10-[1′,2′]benzenoanthracene-1,4,5,8-tetraone]
- potency on cellular transport of adenosine and thymidine compared with TT2 (L1210 cells [1]; FIG. 13): as potent as TT2
- potency on DNA synthesis compared with TT2 (L1210 cells [2]; FIG. 13): as potent as TT2
